Each structure is given as a SMILES string.

Experiment [1] deals with T1, ATP-dependent RNA helicase DHX33 (Mus musculus, UniProt Q80VY9).
T1 sequence (Q80VY9 whole entry): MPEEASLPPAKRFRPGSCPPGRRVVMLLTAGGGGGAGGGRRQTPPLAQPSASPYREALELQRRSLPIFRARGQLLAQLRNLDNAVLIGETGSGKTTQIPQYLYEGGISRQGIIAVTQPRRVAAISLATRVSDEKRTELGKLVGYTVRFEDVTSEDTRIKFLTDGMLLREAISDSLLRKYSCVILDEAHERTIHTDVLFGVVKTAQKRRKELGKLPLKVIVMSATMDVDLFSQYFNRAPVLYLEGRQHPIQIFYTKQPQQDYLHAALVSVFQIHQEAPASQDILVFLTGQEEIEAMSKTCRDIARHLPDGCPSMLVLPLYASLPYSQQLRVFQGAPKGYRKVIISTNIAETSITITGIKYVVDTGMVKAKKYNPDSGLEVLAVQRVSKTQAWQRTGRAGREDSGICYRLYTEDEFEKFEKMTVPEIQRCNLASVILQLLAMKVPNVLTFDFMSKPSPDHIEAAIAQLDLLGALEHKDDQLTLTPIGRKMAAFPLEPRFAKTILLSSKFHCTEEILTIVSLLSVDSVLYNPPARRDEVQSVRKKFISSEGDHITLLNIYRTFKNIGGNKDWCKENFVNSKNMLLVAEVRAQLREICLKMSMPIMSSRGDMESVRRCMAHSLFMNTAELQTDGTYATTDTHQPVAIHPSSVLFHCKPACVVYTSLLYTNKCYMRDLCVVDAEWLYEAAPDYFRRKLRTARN
In words: Inhibition of N-terminal/C-terminal 6x His-tagged wild type recombinant mouse DHX33 transformed in Escherichia coli BL21(DE3)pLysS cells.

The target in experiment [2] is T2, Putative pre-mRNA-splicing factor ATP-dependent RNA helicase DHX32 (Homo sapiens, UniProt Q7L7V1).
T2 sequence (Q7L7V1 whole entry): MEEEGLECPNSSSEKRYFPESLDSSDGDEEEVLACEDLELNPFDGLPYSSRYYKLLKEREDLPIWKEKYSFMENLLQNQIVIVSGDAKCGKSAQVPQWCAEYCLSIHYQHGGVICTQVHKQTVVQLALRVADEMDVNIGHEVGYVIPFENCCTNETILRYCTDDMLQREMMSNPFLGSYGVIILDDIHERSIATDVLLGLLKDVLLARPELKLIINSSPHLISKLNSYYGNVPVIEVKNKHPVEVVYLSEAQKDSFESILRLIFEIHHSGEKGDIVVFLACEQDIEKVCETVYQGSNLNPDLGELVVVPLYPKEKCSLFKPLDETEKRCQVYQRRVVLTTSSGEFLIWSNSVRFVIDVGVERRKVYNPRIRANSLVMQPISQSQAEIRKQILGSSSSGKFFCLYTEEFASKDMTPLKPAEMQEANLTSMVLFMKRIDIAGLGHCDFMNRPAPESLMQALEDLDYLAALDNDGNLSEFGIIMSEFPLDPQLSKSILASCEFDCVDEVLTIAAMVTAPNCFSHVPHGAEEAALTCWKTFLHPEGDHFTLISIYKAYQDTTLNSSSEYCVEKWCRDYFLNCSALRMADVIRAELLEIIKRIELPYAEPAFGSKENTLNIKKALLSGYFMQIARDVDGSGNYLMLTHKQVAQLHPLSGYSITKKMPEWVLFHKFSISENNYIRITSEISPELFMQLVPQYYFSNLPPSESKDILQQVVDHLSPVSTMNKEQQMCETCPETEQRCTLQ
Briefly: Inhibition of N-terminal thioredoxin-tagged human recombinant DHX32 transformed in Escherichia coli BL21(DE3)pLysS cells.

Experiment [3] addresses T3, Probable ATP-dependent RNA helicase DDX6 (Homo sapiens, UniProt P26196).
T3 sequence (P26196 whole entry): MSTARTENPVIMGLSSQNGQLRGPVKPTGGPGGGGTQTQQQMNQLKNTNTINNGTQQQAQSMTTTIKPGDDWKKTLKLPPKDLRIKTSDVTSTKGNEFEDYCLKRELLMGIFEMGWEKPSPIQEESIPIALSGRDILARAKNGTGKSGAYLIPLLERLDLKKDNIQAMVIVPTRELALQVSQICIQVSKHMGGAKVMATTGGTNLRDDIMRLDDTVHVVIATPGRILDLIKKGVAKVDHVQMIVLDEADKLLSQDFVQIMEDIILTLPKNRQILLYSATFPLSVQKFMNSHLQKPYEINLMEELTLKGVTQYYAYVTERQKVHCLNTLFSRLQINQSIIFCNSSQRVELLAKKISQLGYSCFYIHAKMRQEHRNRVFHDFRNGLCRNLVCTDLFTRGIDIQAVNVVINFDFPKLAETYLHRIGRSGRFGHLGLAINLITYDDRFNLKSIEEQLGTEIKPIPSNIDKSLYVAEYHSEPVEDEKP
In words: Inhibition of N-terminal thioredoxin-tagged human recombinant DDX6 transformed in Escherichia coli BL21(DE3)pLysS cells.

The test system of another experiment is U-251. In words: Antiproliferative activity against human U-251MG cells overexpressing DHX33 assessed as inhibition of cell growth measured after 48 hrs by CCK-8 assay. In kind it is functional, cell-based. To be noted: U-251, 48 h. (In general: Tetrazolium dyes change colour on reduction, which living cells bring about.)
The target of experiment [4] is ATP-dependent RNA helicase DHX15 (Homo sapiens, UniProt O43143). Briefly: Inhibition of N-terminal thioredoxin-tagged human recombinant DHX15 transformed in Escherichia coli BL21(DE3)pLysS cells.
Chain of ATP-dependent RNA helicase DHX15 (O43143 whole entry): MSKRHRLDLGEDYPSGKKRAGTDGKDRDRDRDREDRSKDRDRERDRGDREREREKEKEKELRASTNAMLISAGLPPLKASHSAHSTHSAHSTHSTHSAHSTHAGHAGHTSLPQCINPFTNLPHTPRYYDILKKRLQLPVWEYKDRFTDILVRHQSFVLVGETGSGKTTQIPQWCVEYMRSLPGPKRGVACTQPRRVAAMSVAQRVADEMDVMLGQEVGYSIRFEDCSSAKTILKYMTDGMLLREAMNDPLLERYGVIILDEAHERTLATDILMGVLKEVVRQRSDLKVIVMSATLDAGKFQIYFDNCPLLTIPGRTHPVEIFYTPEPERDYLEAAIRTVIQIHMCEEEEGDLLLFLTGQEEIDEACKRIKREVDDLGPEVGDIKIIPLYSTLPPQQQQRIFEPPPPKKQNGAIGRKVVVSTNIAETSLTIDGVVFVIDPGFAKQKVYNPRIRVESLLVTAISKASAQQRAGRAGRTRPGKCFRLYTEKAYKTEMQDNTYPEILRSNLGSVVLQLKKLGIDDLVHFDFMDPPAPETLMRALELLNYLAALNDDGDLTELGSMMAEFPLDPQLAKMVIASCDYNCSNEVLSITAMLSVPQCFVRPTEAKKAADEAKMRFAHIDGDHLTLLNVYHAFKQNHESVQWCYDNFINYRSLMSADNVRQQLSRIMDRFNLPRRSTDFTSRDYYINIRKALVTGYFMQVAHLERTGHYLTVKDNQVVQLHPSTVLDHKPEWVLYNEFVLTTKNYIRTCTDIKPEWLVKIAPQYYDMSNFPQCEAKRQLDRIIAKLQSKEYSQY

Regarding `COc1ccc2nc(NC(=O)c3cc(C)n(-c4sc(C)cc4C#N)c3C)[nH]c2c1`, the IC50 in experiment [1] is 0.019 µM; in experiment [2], above 100 µM; in experiment [3] it was above 100 µM; with U-251, 0.02 µM; in experiment [4] it was 6.3 µM.

As usually defined, the IC50 is the midpoint of a concentration-inhibition curve.
